In brackets after ≈: the same amount, converted by molar mass. Where two headings read alike, the source gives them in different places.
How the values were obtained:
Vero E6 cells = experiment: Cytotoxicity on Vero E6 cells; type: cell-based, African green monkey; conditions: Chlorocebus sabaeus, Vero C1008; 48 h; reduces growth of Vero E6 by 50% vs untreated controls
M. bovis BCG [1] = experiment: microbe, parasite or virus in culture; type: cell-based, Mycobacterium bovis BCG; conditions: for MIC50 / MIC90 / IC50: Mycobacterium tuberculosis variant bovis BCG, BCG; for MIC50: read-out: M. bovis BCG MIC50, concentration reducing growth by 50% vs untreated controls; for M. bovis BCG MIC50: concentration reducing growth by 50% vs untreated controls; for M. bovis BCG MIC90: concentration reducing growth by 90% vs untreated controls; for IC50: read-out: M. bovis BCG MIC50
[2] = test system: inverted membrane vesicles of wild-type M. smegmatis mc^24517; experiment: NADH oxidation in inverted membrane vesicles, WT; type: biochemical; conditions: for EC50: WT M. smegmatis mc^24517, read-out: EC50 of activation of NADH oxidation, WT IMV
M. bovis BCG [3] = type: cell-based, Mycobacterium bovis BCG; conditions: 0.5× to 2× MIC90, 1.5 h + 30 min dye
M. bovis BCG-pfurA-RFP = type: cell-based, Mycobacterium bovis BCG; conditions: 24 h, 37 °C
M. bovis BCG [4] = type: cell-based, Mycobacterium bovis BCG; conditions: 4× MIC90, up to 24 h
M. bovis BCG [5] = type: cell-based, Mycobacterium bovis BCG; conditions: 4× MIC90, up to 24 h; remark: listed apart in the source
M. bovis BCG [6] = experiment: microbe, parasite or virus in culture; type: cell-based; conditions: Mycobacterium tuberculosis variant bovis BCG, 120 h
M. bovis BCG-piniBAC-RFP = type: cell-based, Mycobacterium bovis BCG; conditions: 24 h, various concentrations
[7] = Aqueous solubility (Multiscreen solubility filter plates); type: physicochemical; conditions: pH 7.4, 24 h agitation
M. bovis BCG [8] = type: cell-based, Mycobacterium bovis BCG
M. bovis BCG [9] = type: cell-based, Mycobacterium bovis BCG; conditions: 4× MIC90, after 24 hours
M. bovis BCG [10] = type: cell-based, Mycobacterium bovis BCG; conditions: 4× MIC90, time course to 24 h and after
M. tb H37Rv = experiment: MIC determination by broth dilution on M. tb H37Rv; type: cell-based; conditions: Mycobacterium tuberculosis
[11] = Horseradish peroxidase-phenol red assay for H2O2 generation; type: biochemical; conditions: in vitro, with DTT
[12] = read-out: M. bovis BCG MIC90, concentration reducing growth by 90% vs untreated controls, broth dilution
[13] = read-out: MIC90 of control compounds (Fig. 4 legend), controls of redox assays, organism not restated
[14] = Universal buffer with 1% DMSO, pH 7.4, 25 °C

SMILES	IC50 (Vero E6 cells)	MIC50 (M. bovis BCG [1]; broth dilution)	MIC90 (M. bovis BCG [1]; [12])	M. bovis BCG MIC50 (M. bovis BCG [1]; broth dilution)	further results
Cc1nc2c(n1CCC[P+](c1ccccc1)(c1ccccc1)c1ccccc1)C(=O)c1ccccc1C2=O.[I-] [Compound 3]	> 400 µM	4 µM	5.6 µM	4.0 (4.0, 4.0) μM	–
Cc1nc2ccccc2n1CCCCCCC[P+](c1ccccc1)(c1ccccc1)c1ccccc1.[I-] [Compound 10]	86.4 µM	3.8 µM	5.6 µM	3.8 (3.8, 3.8) μM	–
CCCCn1c2c([n+](C3CCC4(CCCCC4)CC3)c1C)C(=O)c1ccccc1C2=O.[Br-] [Compound 44, reference compound]	–	–	–	–	EC50 [2]: 0.76 µM; ROS formation in cultures (CellROX Green) (M. bovis BCG [3]): dose-dependent ROS formation; Induction of pfurA promoter (RFP fluorescence) (M. bovis BCG-pfurA-RFP): discernible dose-dependent increase in the fluorescence signal; MIC90 (M. bovis BCG [1]; [13]): 0.32 µM
Cc1nc2c(n1CCCCCCCCC[P+](c1ccccc1)(c1ccccc1)c1ccccc1)C(=O)c1ccccc1C2=O.[I-] [Compound 6]	12.4 µM	0.59 µM	1 µM	0.58 (0.6, 0.59) μM	Membrane potential (DiOC2(3) red/green ratio) (M. bovis BCG [4]): rapid and sustained loss of membrane potential; Membrane permeabilization (SYTO9/PI green/red ratio) (M. bovis BCG [5]): not accompanied by membrane permeabilization; MBC (M. bovis BCG [6]; read-out: M. bovis BCG MBC90): 1.6 µM; MBC (M. bovis BCG [6]; read-out: M. bovis BCG MBC99): 3.1 µM; MBC (M. bovis BCG [6]; read-out: M. bovis BCG MBC99.9): 6.2 µM; Induction of piniBAC promoter (RFP fluorescence) (M. bovis BCG-piniBAC-RFP): no increase in fluorescence; ROS formation in cultures (CellROX Green) (M. bovis BCG [3]): negligible levels of ROS; solubility at 24 h ([7]; 25 °C): 105.8 µM; solubility at 24 h [7, 14]: 106 µM; Induction of pfurA promoter (RFP fluorescence) (M. bovis BCG-pfurA-RFP): not observed; Time-kill: CFU over 21 days (M. bovis BCG [8]): steady decrease of CFU up to day 8; CFU count of treated cultures (M. bovis BCG [9]): remained relatively constant; Intracellular ATP levels (M. bovis BCG [10]): initial drop in ATP levels; MIC50 (M. tb H37Rv): 0.37 µM; MIC90 (M. tb H37Rv): 0.8 µM; H2O2 generation, HRP-phenol red assay [11]: negligible H2O2 generation
Cc1nc2c(n1CCCCCCC[n+]1ccccc1)C(=O)c1ccccc1C2=O.[I-] [Compound 16]	–	28.7 µM	48.5 µM	28.7 (32.5, 25.0) μM	M. bovis BCG MIC90 (M. bovis BCG [1]; broth dilution): 48.5 (48.0, 49.0) μM
CCCCCC[P+](CCCCCC)(CCCCCC)CCCCCCCn1c(C)nc2c1C(=O)c1ccccc1C2=O.[I-] [Compound 19]	5.2 µM	0.7 µM	1.4 µM	0.7 (0.7, 0.7) μM	M. bovis BCG MIC90 (M. bovis BCG [1]; broth dilution): 1.4 (1.4, 1.4) μM
Cc1nc2c(n1CCCCC[P+](c1ccccc1)(c1ccccc1)c1ccccc1)C(=O)c1ccccc1C2=O.[I-] [Compound 4]	> 400 µM	2.4 µM	4.6 µM	–	M. bovis BCG MIC90 (M. bovis BCG [1]; broth dilution): 4.6 (4.6, 4.6) μM
CCCCCCCCCCC[P+](c1ccccc1)(c1ccccc1)c1ccccc1.[I-] [Compound 9]	–	2.1 µM	2.8 µM	–	Membrane potential (DiOC2(3) red/green ratio) (M. bovis BCG [4]): behaved similarly to 6 and 7
NNC(=O)c1ccncc1 [INH, isoniazid, reference compound]	–	–	–	–	Induction of piniBAC promoter (RFP fluorescence) (M. bovis BCG-piniBAC-RFP): increased piniBAC promoter activity; Time-kill: CFU over 21 days (M. bovis BCG [8]): rapid decrease in CFU in the first two time points; MIC90 (M. bovis BCG [1]; [13]): 3.7 µM (≈ 0.507 µg/mL)
CCCCCCC[P+](c1ccccc1)(c1ccccc1)c1ccccc1.[I-] [Compound 8]	–	5.5 µM	10.5 µM	–	Membrane potential (DiOC2(3) red/green ratio) (M. bovis BCG [4]): behaved similarly to 6 and 7; M. bovis BCG MIC90 (M. bovis BCG [1]; broth dilution): 10.5 (10.2, 10.8) μM
CCCCCCCCn1c2c([n+](CCCC)c1C)C(=O)c1ccccc1C2=O.[Br-] [Compound 45, reference compound]	–	–	–	–	EC50 [2]: 0.2 µM; ROS formation in cultures (CellROX Green) (M. bovis BCG [3]): dose-dependent ROS formation; Induction of pfurA promoter (RFP fluorescence) (M. bovis BCG-pfurA-RFP): discernible dose-dependent increase in the fluorescence signal; MIC90 (M. bovis BCG [1]; [13]): 0.32 µM
Cc1nc2c(n1CCCCCCCCCCC[P+](c1ccccc1)(c1ccccc1)c1ccccc1)C(=O)c1cccnc1C2=O [Compound 15]	5.4 µM	0.65 µM	1.2 µM	–	IC50 (M. bovis BCG [1]): 0.6 µM
Cc1nc2c(n1CCCCCCC[P+](c1ccccc1)(c1ccccc1)c1ccccc1)C(=O)c1ccccc1C2=O.[I-] [Compound 5]	48.4 µM	1.2 µM	2.3 µM	1.2 (1.2, 1.2) μM	–
O=C1c2ccccc2C(=O)c2c1nc(C(F)(F)F)n2CCCCCCCCCCC[P+](c1ccccc1)(c1ccccc1)c1ccccc1 [Compound 14]	5.6 µM	1.8 µM	2.8 µM	–	–
Cc1cc(=O)n(CCCCCCCCCCC[P+](c2ccccc2)(c2ccccc2)c2ccccc2)c2c1C(=O)c1ccccc1C2=O [Compound 13]	2.1 µM	3.8 µM	5.7 µM	–	–
Cc1nc2c(n1CCCCCCCCCCC[P+](C1CCCCC1)(C1CCCCC1)C1CCCCC1)C(=O)c1ccccc1C2=O.[I-] [Compound 18]	4.1 µM	0.6 µM	0.9 µM	0.6 (0.6, 0.6) μM	–
Cc1nc2ccccc2n1CCCCCCCCCCC[P+](c1ccccc1)(c1ccccc1)c1ccccc1.[I-] [Compound 11]	11.5 µM	0.9 µM	1.4 µM	–	M. bovis BCG MIC90 (M. bovis BCG [1]; broth dilution): 1.4 (1.4, 1.4) μM
Cc1cc(=O)n(CCCCCCC[P+](c2ccccc2)(c2ccccc2)c2ccccc2)c2c1C(=O)c1ccccc1C2=O.[I-] [Compound 12]	5.9 µM	1 µM	1.4 µM	–	M. bovis BCG MIC90 (M. bovis BCG [1]; broth dilution): 1.4 (1.4, 1.4) μM
Cc1nc2c(n1CCCCCCC[P+](C1CCCCC1)(C1CCCCC1)C1CCCCC1)C(=O)c1ccccc1C2=O.[I-] [Compound 17]	24.4 µM	1.3 µM	2.5 µM	1.3 (1.3, 1.3) μM	–
Cc1nc2c(n1CCCCCCCCCCC[P+](c1ccccc1)(c1ccccc1)c1ccccc1)C(=O)c1ccccc1C2=O.[I-] [Compound 7]	5.6 µM	0.5 µM	≤ 1 µM	–	Membrane potential (DiOC2(3) red/green ratio) (M. bovis BCG [4]): rapid and sustained loss of membrane potential; Membrane permeabilization (SYTO9/PI green/red ratio) (M. bovis BCG [5]): not accompanied by membrane permeabilization; Activation of NADH oxidation, WT IMV ([2]; WT M. smegmatis): negligible activation of NADH oxidation; MBC (M. bovis BCG [6]; read-out: M. bovis BCG MBC90): 1.6 µM; MBC (M. bovis BCG [6]; read-out: M. bovis BCG MBC99): 3.1 µM; MBC (M. bovis BCG [6]; read-out: M. bovis BCG MBC99.9): 6.2 µM; Induction of piniBAC promoter (RFP fluorescence) (M. bovis BCG-piniBAC-RFP): no increase in fluorescence; ROS formation in cultures (CellROX Green) (M. bovis BCG [3]): negligible levels of ROS; solubility at 24 h [7, 14]: 27 µM; Induction of pfurA promoter (RFP fluorescence) (M. bovis BCG-pfurA-RFP): not observed; IC50 (M. bovis BCG [1]): 0.55 µM; CFU count of treated cultures (M. bovis BCG [9]): remained relatively constant; Intracellular ATP levels (M. bovis BCG [10]): initial drop in ATP levels; MIC50 (M. tb H37Rv): 1.15 µM; MIC90 (M. tb H37Rv): 1.8 µM; H2O2 generation, HRP-phenol red assay [11]: negligible H2O2 generation
O=C1C=CC(=O)c2ccccc21 [NQ, 1,4-Naphthoquinone, reference compound]	–	–	–	–	MIC90 (M. bovis BCG [1]; [13]): 100 µM (≈ 15.8 µg/mL)
